Data reported in PubChem BioAssay (NCI).
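Values below derive from 48-hour exposures of cells grown in 96-well plates, with endpoints linearly interpolated between the two concentrations bracketing the appropriate inhibition level. GI50 = concentration required for 50% inhibition of growth. Definition used: TGI = concentration required for complete inhibition of growth.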

Experiments:
Assay in all cases: NCI anticancer screen, dose series, 48 h
786-0 renal = tested on: 786-0 renal
A498 renal = tested on: A498 renal
A549 NSCLC = tested on: A549 NSCLC
ACHN renal = tested on: ACHN renal
BT-549 breast = tested on: BT-549 breast
CAKI-1 renal = tested on: CAKI-1 renal
CCRF-CEM leukemia = tested on: CCRF-CEM leukemia
COLO 205 colon = tested on: COLO 205 colon
DU-145 prostate = tested on: DU-145 prostate
EKVX NSCLC = tested on: EKVX NSCLC
HCC-2998 colon = tested on: HCC-2998 colon
HCT-116 colon = tested on: HCT-116 colon
HCT-15 colon = tested on: HCT-15 colon
HL-60(TB) leukemia = tested on: HL-60(TB) leukemia
HOP-62 NSCLC = tested on: HOP-62 NSCLC
HOP-92 NSCLC = tested on: HOP-92 NSCLC
HS 578T breast = tested on: HS 578T breast
HT29 colon = tested on: HT29 colon
IGROV1 ovarian = tested on: IGROV1 ovarian
K-562 leukemia = tested on: K-562 leukemia
KM12 colon = tested on: KM12 colon
LOX IMVI melanoma = tested on: LOX IMVI melanoma
M14 melanoma = tested on: M14 melanoma
MALME-3M melanoma = tested on: MALME-3M melanoma
MCF7 breast = tested on: MCF7 breast
MDA-MB-231 breast = tested on: MDA-MB-231 breast
MDA-MB-435 = tested on: MDA-MB-435
MOLT-4 leukemia = tested on: MOLT-4 leukemia
NCI-H226 lung = tested on: NCI-H226 lung
NCI-H23 lung = tested on: NCI-H23 lung
NCI-H460 lung = tested on: NCI-H460 lung
NCI-H522 lung = tested on: NCI-H522 lung
NCI/ADR-RES ovarian = tested on: NCI/ADR-RES ovarian
OVCAR-3 ovarian = tested on: OVCAR-3 ovarian
OVCAR-4 ovarian = tested on: OVCAR-4 ovarian
OVCAR-5 ovarian = tested on: OVCAR-5 ovarian
OVCAR-8 ovarian = tested on: OVCAR-8 ovarian
PC-3 prostate = tested on: PC-3 prostate
RPMI-8226 leukemia = tested on: RPMI-8226 leukemia
RXF 393 renal = tested on: RXF 393 renal
SF-268 CNS = tested on: SF-268 CNS
SF-295 CNS = tested on: SF-295 CNS
SF-539 CNS = tested on: SF-539 CNS
SK-MEL-2 melanoma = tested on: SK-MEL-2 melanoma
SK-MEL-28 melanoma = tested on: SK-MEL-28 melanoma
SK-MEL-5 melanoma = tested on: SK-MEL-5 melanoma
SK-OV-3 ovarian = tested on: SK-OV-3 ovarian
SN12C renal = tested on: SN12C renal
SNB-19 CNS = tested on: SNB-19 CNS
SNB-75 CNS = tested on: SNB-75 CNS
SR leukemia = tested on: SR leukemia
SW-620 colon = tested on: SW-620 colon
T-47D breast = tested on: T-47D breast
TK-10 renal = tested on: TK-10 renal
U251 CNS = tested on: U251 CNS
UACC-257 melanoma = tested on: UACC-257 melanoma
UACC-62 melanoma = tested on: UACC-62 melanoma
UO-31 renal = tested on: UO-31 renal

With `Cc1ccc2c(n1)C(=O)C(Cl)=C(Nc1ccc(C(F)(F)F)cc1)C2=O` the GI50 (786-0 renal) was 1.84 µM, the TGI (786-0 renal) was 3.7 µM and the GI50 (A498 renal) was 40.2 µM. For the same molecule, the TGI (A498 renal) was > 100 µM, the GI50 (A549 NSCLC) was > 100 µM and the TGI (A549 NSCLC) was > 100 µM. For the same molecule, the GI50 (ACHN renal) was 1.82 µM, the TGI (ACHN renal) was 3.42 µM and the GI50 (BT-549 breast) was 1.78 µM. The TGI (BT-549 breast) was 3.33 µM, the GI50 (CAKI-1 renal) was 1.53 µM and the TGI (CAKI-1 renal) was 3.01 µM. It also gave a GI50 (CCRF-CEM leukemia) of 0.879 µM, a TGI (CCRF-CEM leukemia) of 3.89 µM and a GI50 (COLO 205 colon) of 2.21 µM. For the same molecule, the TGI (COLO 205 colon) was 4.83 µM, the GI50 (DU-145 prostate) was 1.87 µM and the TGI (DU-145 prostate) was 3.41 µM. For the same molecule, the GI50 (EKVX NSCLC) was 1.68 µM, the TGI (EKVX NSCLC) was 3.98 µM and the GI50 (HCC-2998 colon) was 3.14 µM. It also gave a TGI (HCC-2998 colon) of 9.98 µM, a GI50 (HCT-116 colon) of 0.569 µM and a TGI (HCT-116 colon) of 2.02 µM. The GI50 (HCT-15 colon) was 1.36 µM, the TGI (HCT-15 colon) was 3.13 µM and the GI50 (HL-60(TB) leukemia) was 1.4 µM. For the same molecule, the TGI (HL-60(TB) leukemia) was 3.76 µM, the GI50 (HOP-62 NSCLC) was > 100 µM and the TGI (HOP-62 NSCLC) was > 100 µM. The GI50 (HOP-92 NSCLC) was 1.49 µM, the TGI (HOP-92 NSCLC) was 3.19 µM and the GI50 (HS 578T breast) was 5.46 µM. The TGI (HS 578T breast) was 59.7 µM, the GI50 (HT29 colon) was 2.81 µM and the TGI (HT29 colon) was 7.43 µM. It also gave a GI50 (IGROV1 ovarian) of 1.82 µM, a TGI (IGROV1 ovarian) of 4.04 µM and a GI50 (K-562 leukemia) of 0.291 µM. The TGI (K-562 leukemia) was 2.23 µM, the GI50 (KM12 colon) was 70.3 µM and the TGI (KM12 colon) was > 100 µM. It also gave a GI50 (LOX IMVI melanoma) of 1.22 µM, a TGI (LOX IMVI melanoma) of 3.04 µM and a GI50 (M14 melanoma) of 1.74 µM. For the same molecule, the TGI (M14 melanoma) was 3.36 µM, the GI50 (MALME-3M melanoma) was 1.9 µM and the TGI (MALME-3M melanoma) was 3.78 µM. For the same molecule, the GI50 (MCF7 breast) was 1.95 µM, the TGI (MCF7 breast) was 5.03 µM and the GI50 (MDA-MB-231 breast) was 1.84 µM. The TGI (MDA-MB-231 breast) was 4.63 µM, the GI50 (MDA-MB-435) was 2.12 µM and the TGI (MDA-MB-435) was 4.49 µM. It also gave a GI50 (MOLT-4 leukemia) of 0.347 µM, a TGI (MOLT-4 leukemia) of 2.99 µM and a GI50 (NCI-H226 lung) of 1.89 µM. It also gave a TGI (NCI-H226 lung) of 4.72 µM, a GI50 (NCI-H23 lung) of 2.02 µM and a TGI (NCI-H23 lung) of 5.58 µM. The GI50 (NCI-H460 lung) was > 100 µM, the TGI (NCI-H460 lung) was > 100 µM and the GI50 (NCI-H522 lung) was 2 µM. It also gave a TGI (NCI-H522 lung) of 4.93 µM, a GI50 (NCI/ADR-RES ovarian) of 2.62 µM and a TGI (NCI/ADR-RES ovarian) of 8.06 µM. The GI50 (OVCAR-3 ovarian) was 1.61 µM, the TGI (OVCAR-3 ovarian) was 3.03 µM and the GI50 (OVCAR-4 ovarian) was 1.69 µM. It also gave a TGI (OVCAR-4 ovarian) of 4.31 µM, a GI50 (OVCAR-5 ovarian) of 5.07 µM and a TGI (OVCAR-5 ovarian) of 19.8 µM. The GI50 (OVCAR-8 ovarian) was 3.26 µM, the TGI (OVCAR-8 ovarian) was > 100 µM and the GI50 (PC-3 prostate) was 3.7 µM. The TGI (PC-3 prostate) was 20.7 µM, the GI50 (RPMI-8226 leukemia) was 2.23 µM and the TGI (RPMI-8226 leukemia) was 6.08 µM. The GI50 (RXF 393 renal) was 1.57 µM, the TGI (RXF 393 renal) was 2.95 µM and the GI50 (SF-268 CNS) was 3.57 µM. For the same molecule, the TGI (SF-268 CNS) was 16.5 µM, the GI50 (SF-295 CNS) was > 100 µM and the TGI (SF-295 CNS) was > 100 µM. The GI50 (SF-539 CNS) was 1.92 µM, the TGI (SF-539 CNS) was 3.95 µM and the GI50 (SK-MEL-2 melanoma) was 7.2 µM. For the same molecule, the TGI (SK-MEL-2 melanoma) was 32.8 µM, the GI50 (SK-MEL-28 melanoma) was 2.06 µM and the TGI (SK-MEL-28 melanoma) was 3.85 µM. For the same molecule, the GI50 (SK-MEL-5 melanoma) was 6.03 µM, the TGI (SK-MEL-5 melanoma) was 21.2 µM and the GI50 (SK-OV-3 ovarian) was > 100 µM. The TGI (SK-OV-3 ovarian) was > 100 µM, the GI50 (SN12C renal) was 2.31 µM and the TGI (SN12C renal) was 6.51 µM. The GI50 (SNB-19 CNS) was 11.6 µM, the TGI (SNB-19 CNS) was > 100 µM and the GI50 (SNB-75 CNS) was > 100 µM. For the same molecule, the TGI (SNB-75 CNS) was > 100 µM, the GI50 (SR leukemia) was 0.367 µM and the TGI (SR leukemia) was 2.37 µM. For the same molecule, the GI50 (SW-620 colon) was 1.13 µM, the TGI (SW-620 colon) was 3.73 µM and the GI50 (T-47D breast) was 1.55 µM. For the same molecule, the TGI (T-47D breast) was 5.06 µM, the GI50 (TK-10 renal) was 2.28 µM and the TGI (TK-10 renal) was 3.75 µM. It also gave a GI50 (U251 CNS) of 4.93 µM, a TGI (U251 CNS) of 20.5 µM and a GI50 (UACC-257 melanoma) of 1.7 µM. The TGI (UACC-257 melanoma) was 3.27 µM, the GI50 (UACC-62 melanoma) was 2.74 µM and the TGI (UACC-62 melanoma) was 10.7 µM. For the same molecule, the GI50 (UO-31 renal) was 1.37 µM and the TGI (UO-31 renal) was 2.75 µM.
